The target of data set [1] is T1, OxaD D63A (Penicillium oxalicum, UniProt A0A1B2TT15, D63A). Kind of data set: Anaerobic stopped-flow, reductive-half reaction, D63A mutant. In kind it is biochemical, Penicillium oxalicum F30. The settings on record: for kred2: slow phase.
The target of data set [2] is T2, OxaD (Penicillium oxalicum, UniProt A0A1B2TT15). Kind of data set: Oxygen consumption assay, steady-state kinetics. The settings on record: OxaD 1 μM; pH 7.6, 1% DMSO; roquefortine C fixed 100 μM for cosubstrates; NADPH fixed 500 μM when roquefortine C varied.
Procedure: All oxygen consumption assays were performed using an Oxygraph+ system from Hansatech Instruments (Norfolk, U.K.). Assays were performed in 25 mM HEPES/Na^+ buffer, pH 7.6, 50 mM NaCl, 1% DMSO (750 μL total volume).
A further data set has as its target T3, oxidized OxaD (Penicillium oxalicum, UniProt A0A1B2TT15).
T3 sequence (A0A1B2TT15 1-467): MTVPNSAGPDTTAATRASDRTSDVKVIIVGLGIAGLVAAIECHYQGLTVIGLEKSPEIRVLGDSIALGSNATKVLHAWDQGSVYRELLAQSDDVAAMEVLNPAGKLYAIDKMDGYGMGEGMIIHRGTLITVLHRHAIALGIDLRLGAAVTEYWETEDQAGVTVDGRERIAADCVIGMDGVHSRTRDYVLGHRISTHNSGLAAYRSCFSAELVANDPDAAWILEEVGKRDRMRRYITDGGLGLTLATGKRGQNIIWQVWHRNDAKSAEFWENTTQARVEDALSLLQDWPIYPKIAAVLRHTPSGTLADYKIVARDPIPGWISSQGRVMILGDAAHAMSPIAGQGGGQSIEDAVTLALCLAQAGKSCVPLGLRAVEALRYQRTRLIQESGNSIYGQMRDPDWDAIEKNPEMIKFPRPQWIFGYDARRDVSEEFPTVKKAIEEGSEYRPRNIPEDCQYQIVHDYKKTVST
The class given is binding, Penicillium oxalicum F30. The settings on record: 15 μM oxidized OxaD, roquefortine C 0–40 μM, pH 7.6; read-out: apparent KD. Here is the method: (§1) These methods were adapted from Abdelwahab et al., 2016.[29] […] The instrument was blanked with each concentration of roquefortine C prior to recording the enzyme–substrate complex spectra. Each solution was 200 μL and contained 15 μM of enzyme, and various roquefortine C concentrations (0–40 μM). Prior to recording the spectra, the enzyme was incubated on ice for 5 min with the substrate and the spectra were measured immediately following the incubation.

The target of the next data set is T4, oxidized D63A (Penicillium oxalicum, UniProt A0A1B2TT15, D63A).
T4 sequence (A0A1B2TT15 1-467 D63A): T3 sequence (A0A1B2TT15 1-467)
The class given is binding, Penicillium oxalicum F30. The settings on record: 15 μM oxidized D63A, roquefortine C 0–40 μM, pH 7.6; read-out: apparent KD. On the procedure:
as §1

Data set [3] deals with cytochrome P450s in the liver and kidneys. Also noted: method as in PMID 16019806. The settings on record: likely through binding to the heme in the active site; cited from earlier work.
Data set [4] deals with T2, OxaD. The settings on record: for kred2: slow phase.
Procedure: To remove oxygen from the enzyme sample, OxaD (or D63A) was degassed along with buffer solutions as previously described. The stopped-flow was incubated with an anaerobic solution of 0.6 μM glucose oxidase and 100 mM D-glucose in 100 mM sodium acetate, pH 5.0, overnight to remove any oxygen.[27] […] For all stopped-flow experiments, the concentrations listed are after mixing in the instrument. […] Absorbance changes between 200 and 800 nm were recorded. The decrease in absorbance at 446 nm was fit to eq 2 to obtain the observed rate constant of the fast phase (k1) and of the slow phase (k2). A446 is the absorbance at 446 nm, A is the amplitude of the phase, t is time, and C is the final absorbance at 446 nm. […] Oxygenated buffer was prepared by bubbling 30 cc/min (pressure regulated by a flowmeter) of 100% oxygen into the OxaD activity buffer on an ice bath for 1 h while stirring. The resulting oxygen solution has a concentration of 1.2 mM.[27] Oxidation of reduced OxaD or D63A was investigated at various concentrations of oxygen (100–600 μM) at room temperature. To obtain lower oxygen concentrations, the saturated oxygen solution was diluted with anaerobic buffer. Absorbance changes at 200–800 nm were recorded. Absorbance changes at 365 nm were fit to eq 4 to account for the absorbance increase and decrease. In eq 4, A365 is the absorbance values at 365 nm, A1 and A2 are the changes in absorbance related to a single phase, k1 is the rate of absorbance increase, and k2 is the rate of absorbance decrease. Absorbance increases at 446 nm were fit to eq 5, where A446 is the absorbance values at 446 nm, kobs is the observed rate and AΔ is the change in absorbance. In both eq 4 and eq 5, A0 is the initial absorbance and t is time. The bimolecular rate constant was determined using a linear equation. All data fitting was carried out with KaleidaGraph. Spectral deconvolution was carried out using a three-step model that accounted for the reduced enzyme–substrate complex, the enzyme-intermediate complex, and the final oxidized enzyme.
Data set [5] deals with T2, OxaD. Also noted: method as in PMID 27505044. The settings on record: previous characterization; cited from earlier work.
In data set [6] the target is T1, OxaD D63A.
Procedure: (§2) OxaD D63A (D63A from hereon) was expressed and purified using the same procedures as those described for OxaD.
(§3) All oxygen consumption assays were performed using an Oxygraph+ system from Hansatech Instruments (Norfolk, U.K.). Assays were performed in 25 mM HEPES/Na^+ buffer, pH 7.6, 50 mM NaCl, 1% DMSO (750 μL total volume). […] Equation 1 was used to determine the turnover number (kcat) and Michaelis–Menten constant (KM).
In data set [7] the test system is OxaD D63A. The settings on record: D63A vs OxaD.
Procedure: as §2, §3
Another data set has as its system mice. More on the design: method as in ref 11−14. The settings on record: mice exposed to roquefortine C; ref 11−14; cited from earlier work.
Details of data set [8]: method as in ref 18−20. The settings on record: ref 18−20; cited from earlier work.
The subject of data set [9] is human breast and leukemia cancer cell lines. More on the design: method as in ref 18−20. The settings on record: ref 18−20; cited from earlier work.
Data set [10] relates to OxaD D63A. Kind of data set: Anaerobic stopped-flow, reductive-half reaction, D63A mutant. The settings on record: D63A vs OxaD. The class given is biochemical, Penicillium oxalicum F30.
The mark [11] stands for this setting: D63A 10 μM, 10 μM roquefortine C, fast phase.
The mark [12] stands for this setting: D63A 10 μM, 10 μM roquefortine C.
Where [13] appears, read: OxaD 10 μM, 10 μM roquefortine C, fast phase, apparent.
Setting [14] is: OxaD 10 μM, 10 μM roquefortine C.

What is called Km is the substrate concentration at which the rate is half of its maximum.

Where “and” joins values, the source holds several entries; their conditions need not be identical. Identical values can stand only once. Like-named read-outs stand apart in the source and are kept apart here.

As for `C=CC(C)(C)[C@@]12C[C@H]3C(=O)N/C(=C/c4c[nH]cn4)C(=O)N3[C@@H]1Nc1ccccc12` [Roquefortine C], the “enhancement of kred in the presence of substrate” value at OxaD D63A [1] (D63A, with vs without substrate) was around 50 fold. In addition, the results for the Km on OxaD [2], on OxaD [5] and on OxaD D63A [6] (pH 7.6) were 3 ± 1 µM, 0.071 µM and 3.5 ± 0.9 µM, respectively. The kcat is recorded as 0.93 ± 0.07 s^–1 at OxaD [2] and 0.017 s^–1 on OxaD [5]. In addition, the Kd at oxidized OxaD was 6.9 µM and ~6.9 µM; on oxidized D63A, 6.4 ± 0.2 µM. Besides, the “effect on cytochrome P450s” value in data set [3] is “deactivate cytochrome P450s in the liver and kidneys”. Further, on OxaD [4] (OxaD, with vs without roquefortine C), the “enhancement of kred by presence of roquefortine C” value came out at 120 fold. The “increase in kcat compared to OxaD” value with OxaD D63A [7] (oxygen consumption) is listed as around 2 fold. Further, the “toxic effects in mice” value in the data set with mice is “cytotoxic, immunotoxic, neurotoxic, and lung inflammatory effects”.

Consider `C=CC(C)(C)[C@]12C=C(O)C(=O)N3/C(=C/c4cnc[nH]4)C(=O)N[C@@]31N(O)c1ccccc12` [glandicoline B], for which the antibacterial effects entry in data set [8] is reported as “antibacterial effects”.

In the case of `C=CC(C)(C)[C@]12C=C(OC)C(=O)N3/C(=C/c4c[nH]cn4)C(=O)N[C@@]31N(OC)c1ccccc12` [oxaline], in data set [9], the anticancer properties entry is reported as “anticancer properties”. Further, the antibacterial effects result in data set [8] was “antibacterial effects”.

For (R)-[4-^2H]-NADPH, the kred1 on OxaD D63A [1] (setting [11]) was found to be 2.4 ± 0.08 s^–1; on OxaD [4] (setting [13]) it was 9.1 ± 0.10 s^–1. Moreover, the results for the kred2 at OxaD D63A [1] (setting [12]) and at OxaD [4] (setting [14]) were 0.17 ± 0.01 s^–1 and 0.24 ± 0.05 s^–1, respectively. In addition, the “^Dkred (kinetic isotope effect on rate of reduction)” value at OxaD D63A [1] (D63A, 4 mM synthesized NADPH vs 4 mM (R)-[4-^2H]-NADPH) is reported as “^Dkred = 3.60 ± 0.13”. Moreover, the “^Dkcat (kinetic isotope effect on kcat)” value on OxaD D63A [6] (D63A, synthesized NADPH vs (R)-[4-^2H]-NADPH) is “^Dkcat = 3.40 ± 0.38”.

Melegranin: the anticancer properties result in data set [9] is reported as “anticancer properties”.

Take NADH: the kred1 on OxaD [4] (setting [13]) is given as 43 ± 0.30 s^–1. Further, the kred2 at OxaD [4] (setting [14]) came out at 0.34 ± 0.01 s^–1. Also, the “increase in KD(app) relative to NADPH” value at OxaD [4] (OxaD, NADH vs NADPH) is on record as around 3 fold.

Regarding NADPH, the kred1 is 9.0 ± 0.20 s^–1 at OxaD D63A [1] (setting [11]); 0.17 ± 0.01 s^–1 at OxaD D63A [1] (D63A, No roquefortine C); 48 ± 0.80 s^–1 at OxaD [4] (setting [13]); 0.40 ± 0.10 s^–1 at OxaD [4] (OxaD, No roquefortine C). The kred2 at OxaD D63A [1] (setting [12]) came to 0.18 ± 0.01 s^–1; at OxaD [4] (setting [14]), 0.39 ± 0.01 s^–1. For the same molecule, the “kred1/KD(app)” value on OxaD D63A [1] (D63A, 10 μM roquefortine C) is 7.2 × 10^3 ± 1.4 × 10^3 M^–1·s^–1; at OxaD [4] (OxaD, 10 μM roquefortine C), 9.0 × 10^4 ± 2.0 × 10^3 M^–1·s^–1. For the same molecule, in the data set on OxaD D63A [10], the “decrease in kred compared to OxaD” value is on record as around 5 fold. Moreover, in the data set on OxaD D63A [7], the “increase in KM compared to OxaD” value was 25 fold.

Take NADPH [Synthesized NADPH]: the kred1 stood at 8.6 ± 0.14 s^–1 on OxaD D63A [1] (setting [11]) and 45 ± 0.70 s^–1 on OxaD [4] (setting [13]). For the same molecule, the values for the kred2 on OxaD D63A [1] (setting [12]) and on OxaD [4] (setting [14]) were 0.20 ± 0.04 s^–1 and 0.32 ± 0.02 s^–1, respectively.

The values are drawn from article PMC11154958, “Mechanism of Nitrone Formation by a Flavin-Dependent Monooxygenase” (Biochemistry, 2024).
